Measurements from patent US20230085307A1, “PYRIDAZINONE COMPOUND AND HERBICIDE” (NISSAN CHEMICAL CORPORATION, priority 2019, published 2023).

Legend:
rice flat sedge = experiment: Test Example 3: herbicidal effect by foliage application, Wagner pot (Table 18, symbol E); assay type: in vivo, rice flat sedge (Cyperus iria); conditions: 320 g/ha
In short: (§1)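 Plants were sown in alluvial soil held under 0.1–0.5 cm standing water and grown 14 days in a greenhouse at 25–30 °C. An emulsifiable formulation, water-diluted to the set dose, was then sprayed onto the foliage, and effects were scored three weeks later using previously defined criteria.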

barnyard grass [1] = experiment: Test Example 3: herbicidal effect by foliage application, Wagner pot (Table 18, symbol H); assay type: in vivo, barnyard grass (Echinochloa crus-galli); conditions: 320 g/ha
In short: as §1

lambsquarters [2] = experiment: Test Example 5: herbicidal effect by foliage application, plastic box (Table 20, symbol O); assay type: in vivo, lambsquarters (Chenopodium album); conditions: foliage application, 320 g/ha, 3 weeks after application
In short: (§2)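 Plants sown in sterilized diluvial soil and grown 14 days in a greenhouse at 25° C to 30° C, then sprayed on the foliage with the compound's emulsion diluted in water to a predetermined herbicide amount. Injury to weeds and crops scored three weeks after application on a visual rating scale.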

persian speedwell [3] = experiment: Test Example 4: herbicidal effect by soil treatment (Table 19, symbol R); assay type: in vivo, Persian speedwell (Veronica persica); conditions: for R: persian speedwell, herbicidal effect rating: AAH 320 g/ha
In short: (§3)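 Three weeks of greenhouse growth at 25° C. to 30° C. followed a uniform surface spray of water-diluted emulsion at a predetermined herbicide amount. Seeds had been sown beforehand under about 1.5 cm of sterilized diluvial soil. Grading followed criteria set out in an earlier test.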

blackgrass [4] = experiment: Test Example 5: herbicidal effect by foliage application, plastic box (Table 20, symbol J); assay type: in vivo, blackgrass (Alopecurus myosuroides); conditions: foliage application, 320 g/ha, 3 weeks after application
In short: as §2

green foxtail [5] = experiment: Test Example 5: herbicidal effect by foliage application, plastic box (Table 20, symbol G); assay type: in vivo, green foxtail (Setaria viridis); conditions: foliage application, 320 g/ha, 3 weeks after application
In short: as §2

wild oat [6] = experiment: Test Example 4: herbicidal effect by soil treatment (Table 19, symbol I); assay type: in vivo, wild oat (Avena fatua); conditions: for I: wild oat, herbicidal effect rating: AAH 320 g/ha
In short: as §3

barnyard grass [7] = experiment: Test Example 4: herbicidal effect by soil treatment (Table 19, symbol H); assay type: in vivo, barnyard grass (Echinochloa crus-galli); conditions: for H: barnyard grass, herbicidal effect rating: AAH 320 g/ha
In short: as §3

persian speedwell [8] = experiment: Test Example 5: herbicidal effect by foliage application, plastic box (Table 20, symbol R); assay type: in vivo, Persian speedwell (Veronica persica); conditions: foliage application, 320 g/ha, 3 weeks after application
In short: as §2

southern crabgrass [9] = experiment: Test Example 5: herbicidal effect by foliage application, plastic box (Table 20, symbol F); assay type: in vivo, southern crabgrass (Digitaria ciliaris); conditions: foliage application, 320 g/ha, 3 weeks after application
In short: as §2

southern crabgrass [10] = experiment: Test Example 4: herbicidal effect by soil treatment (Table 19, symbol F); assay type: in vivo, southern crabgrass (Digitaria ciliaris); conditions: for F: southern crabgrass, herbicidal effect rating: AAH 320 g/ha
In short: as §3

velvetleaf [11] = experiment: Test Example 5: herbicidal effect by foliage application, plastic box (Table 20, symbol M); assay type: in vivo, velvetleaf (Abutilon theophrasti); conditions: foliage application, 320 g/ha, 3 weeks after application
In short: as §2

barnyard grass [12] = experiment: Test Example 5: herbicidal effect by foliage application, plastic box (Table 20, symbol H); assay type: in vivo, barnyard grass (Echinochloa crus-galli); conditions: foliage application, 320 g/ha, 3 weeks after application
In short: as §2

windgrass [13] = experiment: Test Example 4: herbicidal effect by soil treatment (Table 19, symbol L); assay type: in vivo, windgrass (Apera spica-venti); conditions: for L: windgrass, herbicidal effect rating: AAH 320 g/ha
In short: as §3

Italian ryegrass [14] = experiment: Test Example 4: herbicidal effect by soil treatment (Table 19, symbol K); assay type: in vivo, Italian ryegrass (Lolium multiflorum); conditions: for K: Italian ryegrass, herbicidal effect rating: AAH 320 g/ha
In short: as §3

redroot pigweed = experiment: Test Example 4: herbicidal effect by soil treatment (Table 19, symbol N); assay type: in vivo, redroot pigweed (Amaranthus retroflexus); conditions: for N: redroot pigweed, herbicidal effect rating: AAH 320 g/ha
In short: as §3

wild oat [15] = experiment: Test Example 5: herbicidal effect by foliage application, plastic box (Table 20, symbol I); assay type: in vivo, wild oat (Avena fatua); conditions: foliage application, 320 g/ha, 3 weeks after application
In short: as §2

blackgrass [16] = experiment: Test Example 4: herbicidal effect by soil treatment (Table 19, symbol J); assay type: in vivo, blackgrass (Alopecurus myosuroides); conditions: for J: blackgrass, herbicidal effect rating: AAH 320 g/ha
In short: as §3

Italian ryegrass [17] = experiment: Test Example 5: herbicidal effect by foliage application, plastic box (Table 20, symbol K); assay type: in vivo, Italian ryegrass (Lolium multiflorum); conditions: foliage application, 320 g/ha, 3 weeks after application
In short: as §2

Chinese sprangletop = experiment: Test Example 3: herbicidal effect by foliage application, Wagner pot (Table 18, symbol D); assay type: in vivo, chinese sprangletop (Leptochloa chinensis); conditions: 320 g/ha
In short: as §1

lambsquarters [18] = experiment: Test Example 4: herbicidal effect by soil treatment (Table 19, symbol O); assay type: in vivo, lambsquarters (Chenopodium album); conditions: for O: lambsquarters, herbicidal effect rating: AAH 320 g/ha
In short: as §3

green foxtail [19] = experiment: Test Example 4: herbicidal effect by soil treatment (Table 19, symbol G); assay type: in vivo, green foxtail (Setaria viridis); conditions: for G: green foxtail, herbicidal effect rating: AAH 320 g/ha
In short: as §3

windgrass [20] = experiment: Test Example 5: herbicidal effect by foliage application, plastic box (Table 20, symbol L); assay type: in vivo, windgrass (Apera spica-venti); conditions: foliage application, 320 g/ha, 3 weeks after application
In short: as §2

chickweed = experiment: Test Example 4: herbicidal effect by soil treatment (Table 19, symbol P); assay type: in vivo, common chickweed (Stellaria media); conditions: for P: chickweed, herbicidal effect rating: AAH 320 g/ha
In short: as §3

false cleavers = experiment: Test Example 4: herbicidal effect by soil treatment (Table 19, symbol Q); assay type: in vivo, false cleavers (Galium spurium); conditions: for Q: false cleavers, herbicidal effect rating: AAH 320 g/ha
In short: as §3

velvetleaf [21] = experiment: Test Example 4: herbicidal effect by soil treatment (Table 19, symbol M); assay type: in vivo, velvetleaf (Abutilon theophrasti); conditions: for M: velvetleaf, herbicidal effect rating: AAH 320 g/ha
In short: as §3

[22] = amount of applied herbicide 320 g/ha

Row | Compound | herbicidal effect on E (rice flat sedge), rating 0-5 (rice flat sedge) | herbicidal effect on H (barnyard grass), rating 0-5 (barnyard grass [1]) | effect on lambsquarters (O) (lambsquarters [2]) | R: persian speedwell, herbicidal effect rating (persian speedwell [3]) | effect on blackgrass (J) (blackgrass [4]) | effect on green foxtail (G) (green foxtail [5]) | I: wild oat, herbicidal effect rating (wild oat [6]) | H: barnyard grass, herbicidal effect rating (barnyard grass [7]) | effect on persian speedwell (R) (persian speedwell [8]) | effect on southern crabgrass (F) (southern crabgrass [9]) | F: southern crabgrass, herbicidal effect rating (southern crabgrass [10]) | effect on velvetleaf (M) (velvetleaf [11]) | effect on barnyard grass (H) (barnyard grass [12]) | L: windgrass, herbicidal effect rating (windgrass [13]) | K: Italian ryegrass, herbicidal effect rating (Italian ryegrass [14]) | N: redroot pigweed, herbicidal effect rating (redroot pigweed) | effect on wild oat (I) (wild oat [15]) | J: blackgrass, herbicidal effect rating (blackgrass [16]) | effect on Italian ryegrass (K) (Italian ryegrass [17]) | herbicidal effect on D (Chinese sprangletop), rating 0-5 (Chinese sprangletop) | other results
1 | COCCOCOc1c(C)nn(C)c(=O)c1-c1c(-c2ccc(OC(C)C#N)cc2)sc2ccccc12 (racemic) [1-237] | 4 (Herbicidal rate of 70% or more and less than 90%) | 5 (Herbicidal rate of 90% or more (almost completely withered)) | 5 (Herbicidal rate of 90% or more (almost completely withered)) | 5 (Herbicidal rate of 90% or more (almost completely withered)) | 4 (Herbicidal rate of 70% or more and less than 90%) | 5 (Herbicidal rate of 90% or more (almost completely withered)) | 0 (Herbicidal rate of 5% or less (almost no effect)) | 0 (Herbicidal rate of 5% or less (almost no effect)) | 5 (Herbicidal rate of 90% or more (almost completely withered)) | 3 (Herbicidal rate of 40% or more and less than 70%) | 1 (Herbicidal rate of 5% or more and less than 20%) | 4 (Herbicidal rate of 70% or more and less than 90%) | 4 (Herbicidal rate of 70% or more and less than 90%) | 0 (Herbicidal rate of 5% or less (almost no effect)) | 3 (Herbicidal rate of 40% or more and less than 70%) | 5 (Herbicidal rate of 90% or more (almost completely withered)) | 3 (Herbicidal rate of 40% or more and less than 70%) | 0 (Herbicidal rate of 5% or less (almost no effect)) | 4 (Herbicidal rate of 70% or more and less than 90%) | 4 (Herbicidal rate of 70% or more and less than 90%) | O: lambsquarters, herbicidal effect rating (lambsquarters [18]): 3 (Herbicidal rate of 40% or more and less than 70%); G: green foxtail, herbicidal effect rating (green foxtail [19]): 4 (Herbicidal rate of 70% or more and less than 90%); effect on windgrass (L) (windgrass [20]): 1 (Herbicidal rate of 5% or more and less than 20%); P: chickweed, herbicidal effect rating (chickweed): 3 (Herbicidal rate of 40% or more and less than 70%); Q: false cleavers, herbicidal effect rating (false cleavers): 0 (Herbicidal rate of 5% or less (almost no effect)); M: velvetleaf, herbicidal effect rating (velvetleaf [21]): 1 (Herbicidal rate of 5% or more and less than 20%)
2 | COCCOCc1ccc(-c2sc3ccccc3c2-c2c(O)c(C)nn(C)c2=O)cc1 [1-255] | 5 (Herbicidal rate of 90% or more (almost completely withered)) | 5 (Herbicidal rate of 90% or more (almost completely withered)) | 5 (Herbicidal rate of 90% or more (almost completely withered)) | 5 (Herbicidal rate of 90% or more (almost completely withered)) | 4 (Herbicidal rate of 70% or more and less than 90%) | 5 (Herbicidal rate of 90% or more (almost completely withered)) | 0 (Herbicidal rate of 5% or less (almost no effect)) | 5 (Herbicidal rate of 90% or more (almost completely withered)) | 5 (Herbicidal rate of 90% or more (almost completely withered)) | 4 (Herbicidal rate of 70% or more and less than 90%) | 3 (Herbicidal rate of 40% or more and less than 70%) | 5 (Herbicidal rate of 90% or more (almost completely withered)) | 5 (Herbicidal rate of 90% or more (almost completely withered)) | 0 (Herbicidal rate of 5% or less (almost no effect)) | 4 (Herbicidal rate of 70% or more and less than 90%) | 5 (Herbicidal rate of 90% or more (almost completely withered)) | 0 (Herbicidal rate of 5% or less (almost no effect)) | 2 (Herbicidal rate of 20% or more and less than 40%) | 5 (Herbicidal rate of 90% or more (almost completely withered)) | 3 (Herbicidal rate of 40% or more and less than 70%) | O: lambsquarters, herbicidal effect rating (lambsquarters [18]): 5 (Herbicidal rate of 90% or more (almost completely withered)); G: green foxtail, herbicidal effect rating (green foxtail [19]): 4 (Herbicidal rate of 70% or more and less than 90%); P: chickweed, herbicidal effect rating (chickweed): 4 (Herbicidal rate of 70% or more and less than 90%); Q: false cleavers, herbicidal effect rating (false cleavers): 0 (Herbicidal rate of 5% or less (almost no effect)); M: velvetleaf, herbicidal effect rating (velvetleaf [21]): 4 (Herbicidal rate of 70% or more and less than 90%)
3 | CCCC(=O)Oc1c(C)nn(C)c(=O)c1-c1c(-c2ccc(OC)c(OC)c2)sc2cc(OC)ccc12 [3-081] | – | – | – | – | – | – | – | – | – | – | – | – | – | – | – | – | – | – | – | – | R: persian speedwell, herbicidal effect grade (persian speedwell [3]; [22]): 2 (Herbicidal rate of 20% or more and less than 40%); I: wild oat, herbicidal effect grade (wild oat [6]; [22]): 0 (Herbicidal rate of 5% or less (almost no effect)); H: barnyard grass, herbicidal effect grade (barnyard grass [7]; [22]): 0 (Herbicidal rate of 5% or less (almost no effect)); F: southern crabgrass, herbicidal effect grade (southern crabgrass [10]; [22]): 0 (Herbicidal rate of 5% or less (almost no effect)); L: windgrass, herbicidal effect grade (windgrass [13]; [22]): 0 (Herbicidal rate of 5% or less (almost no effect)); K: Italian ryegrass, herbicidal effect grade (Italian ryegrass [14]; [22]): 0 (Herbicidal rate of 5% or less (almost no effect)); N: redroot pigweed, herbicidal effect grade (redroot pigweed; [22]): 0 (Herbicidal rate of 5% or less (almost no effect)); J: blackgrass, herbicidal effect grade (blackgrass [16]; [22]): 0 (Herbicidal rate of 5% or less (almost no effect)); O: lambsquarters, herbicidal effect grade (lambsquarters [18]; [22]): 0 (Herbicidal rate of 5% or less (almost no effect)); G: green foxtail, herbicidal effect grade (green foxtail [19]; [22]): 0 (Herbicidal rate of 5% or less (almost no effect)); P: chickweed, herbicidal effect grade (chickweed; [22]): 0 (Herbicidal rate of 5% or less (almost no effect)); Q: false cleavers, herbicidal effect grade (false cleavers; [22]): 0 (Herbicidal rate of 5% or less (almost no effect)); M: velvetleaf, herbicidal effect grade (velvetleaf [21]; [22]): 0 (Herbicidal rate of 5% or less (almost no effect))
